Source: US7649012B2, “Compounds, pharmaceutical compositions containing same, and methods of use for same” (FASgen, Inc., priority 2002, dated 2010)
≈ marks a conversion by molar mass, not a printed value.

Key:
[1] = target: viral HIV protease (Human immunodeficiency virus type 1 group M subtype B, UniProt P04585); settings: cited from earlier work
[2] = system: Staphylococcus aureus (ATCC # 29213); experiment: Broth microdilution MIC; format: cell-based; settings: Staphylococcus aureus, ATCC29213; Trypticase Soy Broth; read-out: SA/Tsoy(MIC)
Description: (§1) A broth microdilution assay is used to assess the antimicrobial activity of the compounds. […] Microorganisms tested include Staphylococcus aureus (ATCC # 29213), Enterococcus faecalis (ATCC # 29212), Pseudomonas aeruginosa (ATCC # 27853), and Escherichia coli (ATCC # 25922). The assay is performed in two growth media, Mueller Hinton Broth and Trypticase Soy Broth. […] Colonies are suspended in sterile broth so that the turbidity matches the turbidity of a 0.5 McFarland standard. The inoculum is diluted 1:10 in sterile broth (Mueller Hinton or Trypticase soy) and 195 ul is dispensed per well of a 96-well plate. The compounds to be tested, dissolved in DMSO, are added to the wells in 5 ul volume at the following concentrations: 25, 12.5, 6.25, 3.125, 1.56 and 0.78 ug/ml in duplicate. Additional concentrations are tested if required. 5 ul of DMSO added to duplicate wells are the vehicle control. Serial dilutions of positive control compounds, vancomycin (E. faecalis and S. aureus) and tobramycin (E. coli and P. aeruginosa), are included in each run. After 24 hours of incubation at 37° C., plates are read at OD600 on a Molecular Devices SpectraMax Plus Spectrophotometer. Average OD600 values are computed using SOFTmax Pro Software (Molecular Devices) and MIC values are determined by linear regression analysis using Prism version 3.02 (Graph Pad Software, San Diego).

[3] = system: Pseudomonas aeruginosa (ATCC # 27853); experiment: Broth microdilution MIC; format: cell-based
Description: as §1

[4] = system: Raji cells; settings: cited from earlier work
[5] = target: rat liver acyl-CoA synthetase; settings: read-out: 50% inhibition of rat liver acyl-CoA synthetase; cited from earlier work
[6] = system: MCF-7 human breast cancer cells; experiment: Crystal violet cell growth assay; format: cell-based; settings: MCF7, MCF-7, 72 hours, read-out: Cr. Violet(IC50)
Description: The crystal violet assay measure cell growth but not cytotoxicity. This assay employs crystal violet staining of fixed cells in 96-well plates with subsequent solubilization and measurement of OD490 on a spectrophotometer. The OD490 corresponds to cell growth per unit time measured. Cells are treated with the compounds of interest or vehicle controls and IC50 for each compound is computed.
To measure the cytotoxicity of specific compounds against cancer cells, 5×10^4 MCF-7 human breast cancer cells, obtained from the American Type Culture Collection are plated per well in 24 well plates in DMEM medium with 10% fetal bovine serum, penicillin, and streptomycin. Following overnight culture at 37° C. and 5% CO2, the compounds to be tested, dissolved in DMSO, are added to the wells in 1 μl volume at the following concentrations: 50, 40, 30, 20, and 10 μg/ml in triplicate. Additional concentrations are tested if required. 1 μl of DMSO is added to triplicate wells are the vehicle control. C75 is run at 10, and 5 μg/ml in triplicate as positive controls.
After 72 hours of incubation, cells are stained with 0.5 ml of Crystal Violet stain (0.5% in 25% methanol) in each well. After 10 minutes, wells are rinsed, air dried, and then solubilized with 0.5 ml 10% sodium dodecylsulfate with shaking for 2 hours.

[7] = system: MCF-7 human breast cancer cells; experiment: [14C]acetate incorporation into total lipids; format: cell-based; settings: [14C]acetate incorporation into lipids
Description: This assay measures the incorporation of [^14C]acetate into total lipids and is a measure of fatty acid synthesis pathway activity in vitro. It is utilized to measure inhibition of fatty acid synthesis in vitro.
MCF-7 human breast cancer cells cultured as above, are plated at 5×10^4 cells per well in 24-well plates. […] DMSO is added to triplicate wells for a vehicle control. C75 is run at 5 and 10 μg/ml in triplicate as positive controls. After 4 hours of incubation, 0.25 μCi of [^14C]acetate (10 μl volume) is added to each well.
After 2 hours of additional incubation, medium is aspirated from the wells and 800 μl of chloroform:methanol (2:1) and 700 μl of 4 mM MgCl2 is added to each well. Contents of each well are transferred to 1.5 Eppendorf tubes, and spun at full-speed for 2 minutes in a high-speed Eppendorf Microcentrifuge 5415D. After removal of the aqueous (upper) layer, an additional 700 μl of chloroform:methanol (2:1) and 500 μl of 4 mM MgCl2 are added to each tube and then centrifuged for 1 minutes as above. The aqueous layer is removed with a Pasteur pipette and discarded. An additional 400 μl of chloroform:methanol (2:1) and 200 μl of 4 mM MgCl2 are added to each tube, then centrifuged and aqueous layer is discarded. The lower (organic) phase is transferred into a scintillation vial and dried at 40° C. under N2 gas. Once dried, 3 ml of scintillant (APB #NBC5104) is added and vials are counted for ^14C. The Beckman Scintillation counter calculates the average cpm values for triplicates.
The IC50 for the compounds is defined as the concentration of drug leading to a 50% reduction in [^14C]acetate incorporation into lipids compared to controls. […] The average cpm values are computed by the Beckman scintillation counter (Model LS6500) for each compound concentration. Computation of linear regression, best-fit line, r^2, and 95% confidence intervals are calculated using Prism Version 3.0 (Graph Pad Software).

## C/C=C/C/C=C/CCC(=O)[C@H]1O[C@H]1C(N)=O [cerulenin, (2S,3R)-2,3-epoxy-4-oxo-7,10 dodecadienoyl amide]
[1]
  concentration for inhibition of viral HIV protease: 5 mg/mL

## CCCCCCCC[C@@]1(C)SC(=O)C(C(=O)OC)=C1O (racemic)
[2]
  MIC: 23 µg/mL (≈ 76.6 µM)
[3]; Mueller Hinton Broth
  PSAE/MH(MIC): Neg
[3]; Trypticase Soy Broth
  PSAE/Tsoy(MIC): Neg

## CCCC=CCC=CC=CC=NN=NO [Triacsin C, 1-hydroxy-3-(E, E, E-2′,4′,7′-undecatrienylidine) triazene]
[4]
  concentration causing growth inhibition in Raji cells: 1.0 µM
[5]
  IC50: 8.7 µM

## C=CCOC1=C(C)C(=O)S[C@]1(C)CCCCCCCC (racemic)
[6]
  IC50: 15.1 µg/mL (≈ 50.9 µM)
[7]
  14C(IC50): Neg
